Measurements published in patent US12458709B2, “Compositions and methods for imaging a cell” (NOVOCURE GMBH, priority 2019, dated 2025).

These compounds were tested on clathrin-dependent pathway or macro-pinocytosis pathway (assay: Effect of endocytosis pathway inhibitors on BTNP accumulation in response to TTFields). Conditions: specific inhibitors of clathrin-dependent or macro-pinocytosis pathway.
Assay type: cell-based

SMILES | effect on accumulation of BTNPs in cytoplasm in response to TTFields
N=C(N)NC(=O)c1nc(Cl)c(N)nc1N [amiloride] | did not modulate
CN(C)CCCN1c2ccccc2Sc2ccc(Cl)cc21 [chlorpromazine] | did not modulate
C=C1[C@@H](C)[C@H]2[C@H](Cc3ccccc3)NC(=O)[C@]23[C@H](OC(C)=O)/C=C/[C@@](C)(O)C(=O)[C@@H](C)C/C=C/[C@H]3[C@@H]1O [cytochalasin D] | did not modulate
